Data on ten compounds can be found in ChEMBL document CHEMBL1201862, “PubChem BioAssay data set” (2004).

Each structure is given as a SMILES string.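 96-well plates; 48 h exposure; 5 concentrations. Endpoints by linear interpolation between flanking doses. Not reached: highest tested concentration assigned. Here, GI50 denotes the concentration required for 50% inhibition of growth.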 Active and inactive are the calls of the source. No stated cut-off is given here; in the data, active = GI50 up to about 1.1 µM and inactive = higher. Bounds are passed on as bounds.

Some test systems named below: 786-0; A498; A549; BT-549; EKVX; HCT-116; HOP-92; Hs-578T; K562; Malme-3M; NCI-H226; OVCAR-4; PC-3; RXF 393; SK-MEL-5; SK-OV-3; SNB-75; SR; U-251; UACC-62.
Assay in all cases: growth of human tumour cells (NCI), 48 h

Consider `Cn1c(=O)c2nc(SCc3ccccn3)[nH]c2n(C)c1=S`, for which the GI50 with 786-0 is 67.5 µM (inactive); in the assay with A498 it was 23.3 µM (inactive); in the assay with A549, > 100 µM (inactive); in the assay on BT-549, > 100 µM (inactive); with EKVX, 74 µM (inactive); with HCT-116, > 100 µM (inactive). The GI50 with HOP-92 was 39.2 µM (inactive); in the assay with Hs-578T it was > 100 µM (inactive); in the assay with K562, > 100 µM (inactive); with Malme-3M it was > 100 µM (inactive); in the assay with NCI-H226 it was 63.7 µM (inactive); with OVCAR-4 it was > 100 µM (inactive). Further, the GI50 with PC-3 is > 100 µM (inactive); in the assay on RXF 393, 32.1 µM (inactive); in the assay with SK-MEL-5, > 100 µM (inactive); with SK-OV-3 it was 27.7 µM (inactive); in the assay with SNB-75, 19.5 µM (inactive); in the assay with SR it was > 100 µM (inactive). Moreover, the GI50 in the assay on U-251 was 46.7 µM (inactive); in the assay with UACC-62, 34 µM (inactive).

Turning to `COc1cc2c(cc1OC)C13CCN4CC5CCOC6CC(=O)N2C1C6C5CC43` (configuration not stated), the GI50 with 786-0, with A498, in the assay on A549, in the assay with BT-549, in the assay with EKVX and with HCT-116 was > 100 µM (inactive) each time. Besides, the GI50 in the assay with HOP-92, with Hs-578T, with Malme-3M, with NCI-H226, in the assay with OVCAR-4 and in the assay with PC-3 was > 100 µM (inactive) throughout. Also, the GI50 in the assay with RXF 393 is > 100 µM (inactive); with SK-MEL-5 it was > 100 µM (inactive); in the assay on SK-OV-3, > 100 µM (inactive); in the assay with SR, 2.65 µM (inactive); with U-251 it was > 100 µM (inactive); with UACC-62 it was > 100 µM (inactive).

`C=C1C(=O)OC2/C=C(\C)C3OC3/C=C(/C(=O)OC)C(OC(C)=O)C(OC(=O)C(C)(O)C(C)OC(C)=O)C12` (configuration not stated): the GI50 in the assay with 786-0 is 2.22 µM (inactive); in the assay on A498, 3.24 µM (inactive); in the assay with A549, 14.6 µM (inactive); with BT-549, 1.04 µM (active); in the assay on EKVX it was 10.5 µM (inactive); in the assay on HCT-116 it was 1.27 µM (inactive). Also, the GI50 was 1.9 µM (inactive) in the assay on HOP-92; 6.21 µM (inactive) with Hs-578T; 0.741 µM (active) with K562; 2.14 µM (inactive) in the assay on Malme-3M; 6.89 µM (inactive) in the assay on NCI-H226; 3.5 µM (inactive) in the assay with OVCAR-4. The GI50 was 3.96 µM (inactive) in the assay with PC-3; 0.501 µM (active) in the assay with RXF 393; 2.5 µM (inactive) in the assay on SK-MEL-5; 18.7 µM (inactive) in the assay on SK-OV-3; 2.81 µM (inactive) in the assay on SNB-75; 0.652 µM (active) with SR. Besides, the GI50 in the assay on U-251 was 3.03 µM (inactive); in the assay on UACC-62, 1.7 µM (inactive).

As for `Cc1cc(C)nc(NS(=O)(=O)c2ccc(NC(=O)c3cccc4c(NNc5ccc(S(=O)(=O)N=C(N)N)cc5)c5ccccc5nc34)cc2)n1`, the GI50 in the assay on 786-0, in the assay with A498, in the assay on A549, in the assay on BT-549, in the assay on EKVX and in the assay on HCT-116 was > 50 µM (inactive) throughout. The GI50 with HOP-92, with Hs-578T, in the assay on K562, with Malme-3M, in the assay with NCI-H226 and with OVCAR-4 was > 50 µM (inactive) each time. In addition, the GI50 with PC-3 was > 50 µM (inactive); in the assay with RXF 393, > 50 µM (inactive); in the assay on SK-MEL-5, > 50 µM (inactive); in the assay with SK-OV-3, > 50 µM (inactive); in the assay on SNB-75 it was 41.9 µM (inactive); in the assay with SR, > 50 µM (inactive). For the same compound, the GI50 in the assay on U-251 and in the assay on UACC-62 was > 50 µM (inactive) each time.

Turning to `O=C1N2CCc3c([nH]c4ccccc34)C23CC2CCCC12S3` (configuration not stated), the GI50 was 33.7 µM (inactive) with 786-0; 33 µM (inactive) with A498; 17.7 µM (inactive) in the assay with A549; 21.7 µM (inactive) with BT-549; 47.2 µM (inactive) in the assay with EKVX; 20.6 µM (inactive) in the assay with HCT-116. The GI50 was 29 µM (inactive) in the assay on HOP-92; 22 µM (inactive) with Hs-578T; > 50 µM (inactive) in the assay with K562; 27.6 µM (inactive) in the assay with Malme-3M; > 50 µM (inactive) with NCI-H226; 41 µM (inactive) with OVCAR-4. In addition, the GI50 in the assay on PC-3 was 24.7 µM (inactive); in the assay on RXF 393, > 50 µM (inactive); in the assay on SK-MEL-5 it was 20.3 µM (inactive); in the assay with SK-OV-3, > 50 µM (inactive); in the assay on SR, 28.9 µM (inactive); with U-251, > 50 µM (inactive). Moreover, the GI50 in the assay with UACC-62 is 36.7 µM (inactive).

On to `CC(C)NCC(O)c1cc(OCc2ccccc2)c(OCc2ccccc2)cc1NC(=O)CCC(=O)O` (configuration not stated), for which the GI50 in the assay with 786-0 was 7.52 µM (inactive); in the assay on A498 it was 11 µM (inactive); in the assay on A549 it was 11.8 µM (inactive); in the assay with BT-549, 15.8 µM (inactive); in the assay on EKVX, 12.4 µM (inactive); with HCT-116, 5.22 µM (inactive). Further, the GI50 with HOP-92 is 4.78 µM (inactive); in the assay with Hs-578T, 11.6 µM (inactive); in the assay on K562, 1.92 µM (inactive); with Malme-3M, 15.2 µM (inactive); with NCI-H226 it was 15.7 µM (inactive); with OVCAR-4 it was 11.5 µM (inactive). Further, the GI50 in the assay on PC-3 is 9.02 µM (inactive); in the assay with RXF 393, 5.36 µM (inactive); with SK-MEL-5, 2.1 µM (inactive); in the assay on SK-OV-3 it was 14.9 µM (inactive); in the assay with SNB-75, 10.6 µM (inactive); in the assay on SR it was 2.34 µM (inactive). The GI50 in the assay with U-251 was 5.04 µM (inactive); in the assay on UACC-62 it was 3.25 µM (inactive).

Consider `C1=N\c2ccc(cc2)-c2ccc(cc2)/N=C\c2ccc(cc2)OCc2cccc(n2)COc2ccc/1cc2`, for which the GI50 in the assay on 786-0 is > 100 µM (inactive); with A498, > 100 µM (inactive); with A549, > 100 µM (inactive); in the assay on BT-549, > 100 µM (inactive); in the assay on EKVX, 45.8 µM (inactive); with HCT-116, > 100 µM (inactive). For the same compound, the GI50 in the assay with HOP-92 is > 100 µM (inactive); in the assay on Hs-578T, 18.2 µM (inactive); in the assay on K562, > 100 µM (inactive); in the assay with Malme-3M, 33 µM (inactive); with NCI-H226 it was 37 µM (inactive); with OVCAR-4 it was > 100 µM (inactive). For the same compound, the GI50 in the assay with PC-3 was > 100 µM (inactive); with RXF 393, 42.2 µM (inactive); in the assay with SK-MEL-5, > 100 µM (inactive); in the assay with SK-OV-3, 61.2 µM (inactive); in the assay with SNB-75, 64.7 µM (inactive); in the assay with SR it was > 100 µM (inactive). For the same compound, the GI50 with U-251 was 45.5 µM (inactive); with UACC-62, > 100 µM (inactive).

With `Cc1nc(C)c(N2CCNCC2)c(O)n1`, the GI50 in the assay with 786-0, in the assay with A498, with A549, in the assay on BT-549, in the assay on EKVX and with HCT-116 was > 100 µM (inactive) in each case. For the same compound, the GI50 in the assay with HOP-92, with Hs-578T, in the assay with K562, in the assay on Malme-3M, in the assay on NCI-H226 and with OVCAR-4 was > 100 µM (inactive) in each case. In addition, the GI50 in the assay on PC-3, with RXF 393, with SK-MEL-5, in the assay on SK-OV-3, in the assay with SNB-75 and in the assay with SR was > 100 µM (inactive) throughout. The GI50 with U-251 and in the assay on UACC-62 was > 100 µM (inactive) each time.

In the case of `O=C(c1cc(Cl)cc(Cl)c1)N(Cc1cccnc1)C(=S)N(Cc1cccnc1)C(=O)c1cc(Cl)cc(Cl)c1`, the GI50 is 17.3 µM (inactive) in the assay on 786-0; 27.4 µM (inactive) with A498; > 100 µM (inactive) in the assay on A549; 29.2 µM (inactive) with BT-549; 87.1 µM (inactive) in the assay on EKVX; 31.1 µM (inactive) in the assay on HCT-116. Besides, the GI50 in the assay on HOP-92 is 36.6 µM (inactive); with Hs-578T it was 60.8 µM (inactive); with K562, 24.4 µM (inactive); with Malme-3M, 55.8 µM (inactive); in the assay with NCI-H226 it was 52.1 µM (inactive); with OVCAR-4, 27.3 µM (inactive). In addition, the GI50 was 18.4 µM (inactive) in the assay on PC-3; 34.2 µM (inactive) in the assay on RXF 393; 23.3 µM (inactive) with SK-MEL-5; > 100 µM (inactive) in the assay on SK-OV-3; 92.7 µM (inactive) in the assay on SNB-75; 16.1 µM (inactive) in the assay on SR. The figures for the GI50 with U-251 and with UACC-62 were 22.2 µM (inactive) and 45.7 µM (inactive), respectively.

For `COc1cc(C(=O)O)ccc1OS(=O)(=O)O`, the GI50 in the assay on 786-0 is > 100 µM (inactive); in the assay on A498, > 10 µM (inactive); with A549, > 100 µM (inactive); with BT-549 it was > 100 µM (inactive); with EKVX it was > 100 µM (inactive); with HCT-116, > 100 µM (inactive). For the same compound, the GI50 in the assay on HOP-92, with Hs-578T, in the assay with K562, in the assay on Malme-3M, in the assay with NCI-H226 and in the assay with OVCAR-4 was > 100 µM (inactive) each time. The GI50 with PC-3 is > 100 µM (inactive); in the assay with RXF 393, 30.3 µM (inactive); in the assay on SK-MEL-5 it was > 100 µM (inactive); in the assay with SK-OV-3, > 100 µM (inactive); in the assay with SNB-75 it was > 100 µM (inactive); in the assay with SR, > 100 µM (inactive). The GI50 in the assay on U-251 and with UACC-62 was > 100 µM (inactive) each time.
